The results in this text go back to patent US7495104B2, “Quinoline or quinazoline derivatives inhibiting auto-phosphorylation of fibroblast growth factor receptors” (Kirin Beer Kabushiki Kaisha, priority 2001, dated 2009).

One test addresses Bek (Homo sapiens, UniProt P21802). Description: Inhibitory activity against Bek-autophosphorylation using ELISA method in OCUM-2MD3 cells. Conditions: 1 hr with compound, read-out: IC50 (concentration necessary for inhibiting 50% of Bek-phosphorylation). The test is classed as cell-based. In outline:
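Sandwich ELISA (anti-phosphotyrosine capture, anti-Bek detection, peroxidase, 450 nm) measured Bek autophosphorylation in OCUM-2MD3 lysates after 1 hr compound treatment at 37° C in 0.1% serum medium. IC50 derived by scaling between no-drug (100%) and excess positive control at 1000 nM (0%).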
For orientation: ELISA stands for enzyme-linked immunosorbent assay.

Test [1] relates to Human gastric cancer cells (OCUM-2MD3). The test can be described thus: Tumor growth inhibitory activity against human gastric cancer cells (OCUM-2MD3) in nude mice (Pharmacological Test Example 3). In kind it is in vivo. Conditions: Mus musculus, read-out: TGIR (tumor growth inhibition rate); for inhibition in vivo at 10 mg: 240 h, dose per day 10 mg × 2, oral; for inhibition in vivo at 25 mg: 600 h, dose per day 25 mg × 1, oral. The protocol: (§1) Human gastric cancer cells (OCUM-2MD3) (kindly provided by Dr. Kosei Hirakawa, Osaka City University) were transplanted into nude mice. […] The test compound suspended in 0.5% methylcellulose was orally administered every day twice a day for 5 days (except for the first day on which the suspension was administered once a day).
(§2) Only 0.5% methylcellulose was administered to the control group in the manner as in the test groups. The tumor growth inhibition rate (TGIR) was calculated as follows: The tumor growth inhibition rate (TGIR)=(1−TX/CX)×100 wherein CX represents the volume of tumor at day X for the control group when the tumor volume at the day of the start of the administration was presumed to be 1; and TX represents the volume of tumor for test compound administration groups.
Tumor growth inhibitory activity was measured in the same manner as in Pharmacological Test Example 2, except that oral administration was carried out once a day or twice a day (except for the first day on which the suspension was administered once a day).

Test [2] shares this test system. The test can be described thus: Tumor growth inhibitory activity against human gastric cancer cells (OCUM-2MD3) in nude mice (Pharmacological Test Example 2). In kind it is in vivo. To be noted: unit dose 10 mg/kg, oral, twice a day for 5 days. The protocol: as §1, §2

Counter-ions that a name gives are not always drawn.

Chain of Bek (P21802 431-767 limits assumed): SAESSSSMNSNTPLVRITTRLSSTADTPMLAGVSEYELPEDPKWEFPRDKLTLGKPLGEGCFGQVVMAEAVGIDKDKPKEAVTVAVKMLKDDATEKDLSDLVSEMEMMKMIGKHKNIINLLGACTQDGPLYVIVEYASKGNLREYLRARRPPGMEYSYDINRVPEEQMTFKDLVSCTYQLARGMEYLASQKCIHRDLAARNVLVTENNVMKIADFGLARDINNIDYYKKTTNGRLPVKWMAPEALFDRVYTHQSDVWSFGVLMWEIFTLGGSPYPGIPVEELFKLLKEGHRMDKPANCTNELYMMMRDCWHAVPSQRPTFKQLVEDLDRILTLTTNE

As for `COc1cc2nccc(Oc3ccc(NC(=O)NCCC(C)(C)C)cc3)c2cc1OCCN1CCOCC1` [Compound 90, 1-(3,3-Dimethyl-butyl)-3-{4-[7-methoxy-6-(2-morpholin-4-yl-ethoxy)-quinolin-4-yloxy]-phenyl}-urea], the IC50 at Bek was 12.6 nM. Also, in test [1], the inhibition in vivo at 10 mg turned out to be 36%. Turning to `COc1cc2c(Oc3ccc(NC(=O)NCCC(C)(C)C)c(Cl)c3)ccnc2cc1OCCN1CCCCC1` [Compound 100, 1-{2-Chloro-4-[6-methoxy-7-(2-piperidin-1-yl-ethoxy)-quinolin-4-yloxy]-phenyl}-3-(3,3-dimethyl-butyl)-urea], the IC50 on Bek turned out to be 175 nM. In addition, in test [1], the inhibition in vivo at 25 mg amounted to 43%.

For `COc1cc2c(Oc3ccc(NC(=O)NCCC(C)(C)C)cc3F)ccnc2cc1OCCN1CCOCC1` [Compound 98, 1-(3,3-Dimethyl-butyl)-3-{3-fluoro-4-[6-methoxy-7-(2-morpholin-4-yl-ethoxy)-quinolin-4-yloxy]-phenyl}-urea], the IC50 at Bek was below 10 nM. Besides, in test [1], the inhibition in vivo at 25 mg was 48%. Regarding `COc1cc2c(Oc3ccc(Nc4ccc(C(C)(C)C)cc4)cc3)ccnc2cc1OCCN1CCOCC1` [Compound 37 (hydrochloride)], the “TGIR (tumor growth inhibition rate)” value in test [2] was 35%. Still for that read-out and setting: to `COc1cc2c(Oc3ccc(Nc4ccc(C(C)(C)C)cc4)cc3)ccnc2cc1OCC(O)CN1CCOCC1` (stereo not shown) [Compound 59 (hydrochloride)] belongs 16%. Take `COc1cc2c(Oc3ccc(NC(=O)NCCC(C)(C)C)c(F)c3)ccnc2cc1OCCN1CC(C)OC(C)C1` (stereo not shown) [Compound 97, 1-(3,3-Dimethyl-butyl)-3-(4-{7-[2-(2,6-dimethyl-morpholin-4-yl)-ethoxy]-6-methoxy-quinolin-4-yloxy}-2-fluoro-phenyl)-urea]: the IC50 at Bek is below 10 nM. For the same compound, the inhibition in vivo at 25 mg in test [1] is 48%. Regarding `COc1cc2c(Oc3ccc(NC(=O)NCCC(C)(C)C)c(F)c3)ccnc2cc1OCC(O)CN1CCOCC1` (stereo not shown) [Compound 89, 1-(3,3-Dimethyl-butyl)-3-{2-fluoro-4-[7-(2-hydroxy-3-morpholin-4-yl-propoxy)-6-methoxy-quinolin-4-yloxy]-phenyl}-urea hydrochloride], the IC50 at Bek was below 10 nM. Further, the inhibition in vivo at 10 mg in test [1] was 29%. Consider `COc1cc2c(Oc3ccc(NC(=O)NCCC(C)(C)C)cc3)ccnc2cc1OCCN1CCCCC1` [Compound 91, 1-(3,3-Dimethyl-butyl)-3-{4-[6-methoxy-7-(2-piperidin-1-yl-ethoxy)-quinolin-4-yloxy]-phenyl}-urea hydrochloride], for which the IC50 at Bek turned out to be 18.4 nM. Also, the inhibition in vivo at 25 mg in test [1] is 28%. `COc1cc2c(Oc3ccc(NC(=O)NCCC(C)(C)C)c(F)c3)ccnc2cc1OCCCN1CCOCC1` [Compound 88, 1-(3,3-Dimethyl-butyl)-3-{2-fluoro-4-[6-methoxy-7-(3-morpholin-4-yl-propoxy)-quinolin-4-yloxy]-phenyl}-urea hydrochloride]: at Bek, the IC50 was 10.8 nM. In addition, the inhibition in vivo at 10 mg in test [1] turned out to be 35%.
